For one compound, IC50 results are on record in ChEMBL document CHEMBL1152310, “A Dimeric sesquiterpenoid from a Malaysian Meiogyne as a new inhibitor of Bcl-xL/BakBH3 domain peptide interaction” (J Nat Prod, 2009).

Each structure is given as a SMILES string.

The test system of the assay is KB. Description: Cytotoxicity against human KB cells. Type of assay: functional, cell-based.

As for `CC(C)=CCC[C@@H](C)[C@H]1C=C[C@@]2(C(=O)O)[C@H](CC(C)=C[C@@H]2/C=C(\C)C2CCC(C(=O)O)CC2)C1` (stereo partly specified) [MEIOGYNIN A], the half-maximal inhibitory concentration (IC50) turned out to be 4 µM.
